Target: T1, human mGlu 5a receptor (Homo sapiens, UniProt P41594)
T1 construct: expressed in transfected cells; host or cells: EBNA cells (transient transfection), cell membrane homogenates
Assay: [3H]MPEP competition binding on membranes of EBNA cells transfected with human mGlu 5a receptor
Settings: competition with [3H]MPEP (2 nM), 1 h at 4° C., human mGlu 5a receptor membranes; read-out: Ki (mGluR5)
Description: The pharmacological activity of the compounds was tested using the following method: For binding experiments, cDNA encoding human mGlu 5a receptor was transiently transfected into EBNA cells using a procedure described by Schlaeger and Christensen [Cytotechnology 15:1-13 (1998)]. Cell membrane homogenates were stored at −80° C. until the day of assay where upon they were thawed and resuspended and polytronized in 15 mM Tris-HCl, 120 mM NaCl, 100 mM KCl, 25 mM CaCl2, 25 mM MgCl2 binding buffer at pH 7.4 to a final assay concentration of 20 μg protein/well.
Saturation isotherms were determined by addition of twelve [^3H]MPEP concentrations (0.04-100 nM) to these membranes (in a total volume of 200 μl) for 1 h at 4° C. Competition experiments were performed with a fixed concentration of [^3H]MPEP (2 nM), and IC50 values of test compounds evaluated using 11 concentrations (0.3-10,000 nM). Incubations were performed for 1 h at 4° C.
At the end of the incubation, membranes were filtered onto unifilter (96-well white microplate with bonded GF/C filter preincubated 1 h in 0.1% PEI in wash buffer, Packard Bio-Science, Meriden, Conn.) with a Filtermate 96 harvester (Packard BioScience) and washed 3 times with cold 50 mM Tris-HCl, pH 7.4 buffer. Nonspecific binding was measured in the presence of 10 μM MPEP. The radioactivity on the filter was counted (3 min) on a Packard Top-count microplate scintillation counter with quenching correction after addition of 45 μl of microscint 40 (Canberra Packard S. A., Zürich, Switzerland) and shaking for 20 min.
The inhibition (antagonists) curves were fitted with a four parameter logistic equation giving IC50, and Hill coefficient using iterative non linear curve fitting software (Xcel fit).
For binding experiments the Ki values of the compounds tested are given. The Ki value is defined by the following formula: Ki=IC50/[1+L/Kd] in which the IC50 values are those concentrations of the compounds tested which cause 50% inhibition of the competing radioligand ([^3H]MPEP). L is the concentration of radioligand used in the binding experiment and the Kd value of the radioligand is empirically determined for each batch of membranes prepared.

T1 sequence (P41594 21-1180 isoform P41594-2 limits assumed): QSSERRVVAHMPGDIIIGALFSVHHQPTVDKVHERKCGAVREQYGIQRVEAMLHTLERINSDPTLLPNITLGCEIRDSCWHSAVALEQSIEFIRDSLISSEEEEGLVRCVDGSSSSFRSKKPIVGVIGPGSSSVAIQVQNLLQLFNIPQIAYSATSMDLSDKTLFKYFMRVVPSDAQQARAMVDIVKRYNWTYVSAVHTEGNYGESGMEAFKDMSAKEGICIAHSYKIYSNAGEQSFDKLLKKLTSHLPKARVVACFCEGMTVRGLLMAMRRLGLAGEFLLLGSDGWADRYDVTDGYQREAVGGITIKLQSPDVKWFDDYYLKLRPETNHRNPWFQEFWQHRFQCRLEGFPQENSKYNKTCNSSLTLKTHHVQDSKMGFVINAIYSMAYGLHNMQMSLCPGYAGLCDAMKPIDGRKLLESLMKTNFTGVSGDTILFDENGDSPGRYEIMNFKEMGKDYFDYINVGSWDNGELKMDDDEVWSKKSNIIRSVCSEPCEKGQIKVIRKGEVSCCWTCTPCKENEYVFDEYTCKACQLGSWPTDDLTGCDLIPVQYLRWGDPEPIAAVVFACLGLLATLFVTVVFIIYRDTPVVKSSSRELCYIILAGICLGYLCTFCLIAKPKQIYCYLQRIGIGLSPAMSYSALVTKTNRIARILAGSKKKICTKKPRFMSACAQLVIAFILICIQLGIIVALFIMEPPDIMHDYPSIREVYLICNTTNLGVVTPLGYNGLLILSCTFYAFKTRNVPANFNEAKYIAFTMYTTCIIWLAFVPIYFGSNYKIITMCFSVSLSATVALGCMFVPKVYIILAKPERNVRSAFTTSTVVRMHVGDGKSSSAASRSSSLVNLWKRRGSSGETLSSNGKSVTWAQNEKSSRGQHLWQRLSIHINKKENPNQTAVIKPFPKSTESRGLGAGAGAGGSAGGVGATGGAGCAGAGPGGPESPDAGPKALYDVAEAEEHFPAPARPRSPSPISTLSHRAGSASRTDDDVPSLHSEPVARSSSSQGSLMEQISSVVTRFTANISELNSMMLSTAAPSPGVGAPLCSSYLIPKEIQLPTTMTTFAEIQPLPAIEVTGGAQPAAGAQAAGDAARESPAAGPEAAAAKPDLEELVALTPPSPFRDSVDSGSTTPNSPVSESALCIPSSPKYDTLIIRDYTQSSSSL

Ki [nM]	Molecule
30	Cc1ccc(Nc2cncnc2)c(C(=O)Nc2cccc(Cl)c2)n1 [Example 2, 6-Methyl-3-(pyrimidin-5-ylamino)-pyridine-2-carboxylic acid (3-chloro-phenyl)-amide]
28	Cc1csc(NC(=O)c2nc(C)ccc2Nc2cccnc2)n1 [Example 14, 6-Methyl-3-(pyridin-3-ylamino)-pyridine-2-carboxylic acid (4-methyl-thiazol-2-yl)-amide]
55	Cc1ccc(Nc2cccc(F)c2)c(C(=O)Nc2ccc(F)c(C)n2)n1 [Example 54, 3-(3-Fluoro-phenylamino)-6-methyl-pyridine-2-carboxylic acid (5-fluoro-6-methyl-pyridin-2-yl)-amide]
56	Cc1ccc(Nc2cncnc2)c(C(=O)Nc2ncc(C)s2)n1 [Example 106, 6-Methyl-3-(pyrimidin-5-ylamino)-pyridine-2-carboxylic acid (5-methyl-thiazol-2-yl)-amide]
10	Cc1ccc(Nc2ccnn2C)c(C(=O)Nc2csc(C)n2)n1 [Example 92, 6-Methyl-3-(2-methyl-2H-pyrazol-3-ylamino)-pyridine-2-carboxylic acid (2-methyl-thiazol-4-yl)-amide]
82	Cc1ccc(Nc2cncc(C(F)(F)F)c2)c(C(=O)Nc2ccn(C)n2)n1 [Example 51, 6-Methyl-3-(5-trifluoromethyl-pyridin-3-ylamino)-pyridine-2-carboxylic acid (1-methyl-1H-pyrazol-3-yl)-amide]
27	Cc1ccc(Nc2cccnc2)c(C(=O)Nc2ccn(C)n2)n1 [Example 16, 6-Methyl-3-(pyridin-3-ylamino)-pyridine-2-carboxylic acid (1-methyl-1H-pyrazol-3-yl)-amide]
21	Cc1ccc(Nc2cccnc2)c(C(=O)Nc2ccc(F)cn2)n1 [Example 8, 6-Methyl-3-(pyridin-3-ylamino)-pyridine-2-carboxylic acid (5-fluoro-pyridin-2-yl)-amide]
14	Cc1ccc(Nc2cc(C3CC3)nn2C)c(C(=O)Nc2ccc(F)c(C)n2)n1 [Example 103, 3-(5-Cyclopropyl-2-methyl-2H-pyrazol-3-ylamino)-6-methyl-pyridine-2-carboxylic acid (5-fluoro-6-methyl-pyridin-2-yl)-amide]
42	Cc1ccc(Nc2cccnc2)c(C(=O)Nc2ccnc(Cl)c2)n1 [Example 4, 6-Methyl-3-(pyridin-3-ylamino)-pyridine-2-carboxylic acid (2-chloro-pyridin-4-yl)-amide]
66	Cc1cc(NC(=O)c2nc(C)ccc2Nc2cncc(C#N)c2)ccn1 [Example 22, 3-(5-Cyano-pyridin-3-ylamino)-6-methyl-pyridine-2-carboxylic acid (2-methyl-pyridin-4-yl)-amide]
367	Cc1ccc(Nc2cccc(C#N)c2)c(C(=O)Nc2nc(C(F)(F)F)cs2)n1 [Example 60, 3-(3-Cyano-phenylamino)-6-methyl-pyridine-2-carboxylic acid (4-trifluoromethyl-thiazol-2-yl)-amide]
78	Cc1ccc(Nc2cccnc2)c(C(=O)Nc2nc(C(F)(F)F)cs2)n1 [Example 18, 6-Methyl-3-(pyridin-3-ylamino)-pyridine-2-carboxylic acid (4-trifluoromethyl-thiazol-2-yl)-amide]

Molecule	Ki [nM]
6-Methyl-3-(1-methyl-1H-pyrazol-4-ylamino)-pyridine-2-carboxylic acid (5-fluoro-pyridin-2-yl)-amide [Example 96]	57
